Test results reported in US6358885B1, “Substituted phenylheterocyclic herbicides” (Mississippi State University, priority 1992, dated 2002).

Experiments:
Assay in all cases: Test G preemergence/postemergence greenhouse plant response rating 0 to 100
annual bluegrass = assay type: in vivo, Poa annua; details: 0 to 100 scale
How it was run: (§1)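 Greenhouse pots, one species each; non-phytotoxic solvent vehicle. Read-out: visual injury vs untreated, 13–21 DAT. Dash denotes no result.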

bermudagrass = assay type: in vivo, Cynodon dactylon; details: 0 to 100 scale
How it was run: as §1

broadleaf signalgrass = assay type: in vivo, Brachiaria plantaginea; details: 0 to 100 scale
How it was run: as §1

common purslane = assay type: in vivo, Portulaca oleracea; details: 0 to 100 scale
How it was run: as §1

common ragweed = assay type: in vivo, Ambrosia elatior; details: 0 to 100 scale
How it was run: as §1

dallisgrass = assay type: in vivo, Paspalum dilatatum; details: 0 to 100 scale
How it was run: as §1

goosegrass = assay type: in vivo, Eleusine indica; details: 0 to 100 scale
How it was run: as §1

guineagrass = assay type: in vivo, Panicum maximum; details: 0 to 100 scale
How it was run: as §1

itchgrass = assay type: in vivo, Rottboellia exaltata; details: 0 to 100 scale
How it was run: as §1

johnsongrass = assay type: in vivo, Sorghum halepense; details: 0 to 100 scale
How it was run: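 Scoring: visual injury at 13 to 21 days post-application, compared with untreated controls. Planting: one species per pot in greenhouse medium. Dosing: compound in non-phytotoxic solvent, within one day of sowing for preemergence or at 2–4 leaves for postemergence.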

large crabgrass = assay type: in vivo, Digitaria sanguinalis; details: 0 to 100 scale
How it was run: as §1

peanut = assay type: in vivo, Arachis hypoagaea; details: 0 to 100 scale
How it was run: as §1

pitted morningglory = assay type: in vivo, Ipomoea lacunosa; details: 0 to 100 scale
How it was run: as §1

sandbur = assay type: in vivo, Cenchrus echinatus; details: 0 to 100 scale
How it was run: as §1

smooth crabgrass = assay type: in vivo, Digitaria ischaemum; details: 0 to 100 scale
How it was run: as §1

yellow nutsedge = assay type: in vivo, Cyperus esculentus; details: Rate 125 g/ha, 0 to 100 scale
How it was run: as §1

CC(C)Oc1cc(-c2nn3c(c2Cl)CCCC3)c(F)cc1Cl [Compound 21]
60: Plant response rating, Itchgrass (itchgrass; PREEMERGENCE, Rate 125 g/ha) | Plant response rating, Large Crabgrass (large crabgrass; PREEMERGENCE, Rate 250 g/ha)
90: Plant response rating, Cmn Purslane (common purslane; POSTEMERGENCE, Rate 250 g/ha)
70: Plant response rating, Cmn Purslane (common purslane; POSTEMERGENCE, Rate 125 g/ha) | Plant response rating, Goosegrass (goosegrass; PREEMERGENCE, Rate 250 g/ha) | Plant response rating, Smooth Crabgras (smooth crabgrass; PREEMERGENCE, Rate 125 g/ha)
30: Plant response rating, Ann Bluegrass (annual bluegrass; PREEMERGENCE, Rate 125 g/ha) | Plant response rating, Johnsongrass (johnsongrass; PREEMERGENCE, Rate 125 g/ha)
100: Plant response rating, Cmn Purslane (common purslane; PREEMERGENCE, Rate 125 g/ha) | Plant response rating, Cmn Ragweed (common ragweed; POSTEMERGENCE, Rate 250 g/ha) | Plant response rating, Goosegrass (goosegrass; PREEMERGENCE, Rate 125 g/ha) | Plant response rating, Guineagrass (guineagrass; PREEMERGENCE, Rate 125 g/ha) | Plant response rating, Large Crabgrass (large crabgrass; PREEMERGENCE, Rate 125 g/ha)
40: Plant response rating, Dallisgrass (dallisgrass; PREEMERGENCE, Rate 250 g/ha)
0: Plant response rating, Ann Bluegrass (annual bluegrass; POSTEMERGENCE, Rate 125 g/ha) | Plant response rating, Ann Bluegrass (annual bluegrass; POSTEMERGENCE, Rate 250 g/ha) | Plant response rating, Ann Bluegrass (annual bluegrass; PREEMERGENCE, Rate 250 g/ha) | Plant response rating, Bermudagrass (bermudagrass; POSTEMERGENCE, Rate 125 g/ha) | Plant response rating, Bermudagrass (bermudagrass; POSTEMERGENCE, Rate 250 g/ha) | Plant response rating, Bermudagrass (bermudagrass; PREEMERGENCE, Rate 250 g/ha) | Plant response rating, Brdlf Sgnlgrass (broadleaf signalgrass; POSTEMERGENCE, Rate 125 g/ha) | Plant response rating, Brdlf Sgnlgrass (broadleaf signalgrass; POSTEMERGENCE, Rate 250 g/ha) | Plant response rating, Brdlf Sgnlgrass (broadleaf signalgrass; PREEMERGENCE, Rate 125 g/ha) | Plant response rating, Brdlf Sgnlgrass (broadleaf signalgrass; PREEMERGENCE, Rate 250 g/ha) | Plant response rating, Cmn Purslane (common purslane; PREEMERGENCE, Rate 250 g/ha) | Plant response rating, Cmn Ragweed (common ragweed; POSTEMERGENCE, Rate 125 g/ha) | Plant response rating, Dallisgrass (dallisgrass; POSTEMERGENCE, Rate 125 g/ha) | Plant response rating, Dallisgrass (dallisgrass; POSTEMERGENCE, Rate 250 g/ha) | Plant response rating, Goosegrass (goosegrass; POSTEMERGENCE, Rate 125 g/ha) | Plant response rating, Goosegrass (goosegrass; POSTEMERGENCE, Rate 250 g/ha) | Plant response rating, Guineagrass (guineagrass; POSTEMERGENCE, Rate 125 g/ha) | Plant response rating, Guineagrass (guineagrass; POSTEMERGENCE, Rate 250 g/ha) | Plant response rating, Guineagrass (guineagrass; PREEMERGENCE, Rate 250 g/ha) | Plant response rating, Itchgrass (itchgrass; POSTEMERGENCE, Rate 125 g/ha) | Plant response rating, Itchgrass (itchgrass; POSTEMERGENCE, Rate 250 g/ha) | Plant response rating, Itchgrass (itchgrass; PREEMERGENCE, Rate 250 g/ha) | Plant response rating, Johnsongrass (johnsongrass; POSTEMERGENCE, Rate 125 g/ha) | Plant response rating, Johnsongrass (johnsongrass; POSTEMERGENCE, Rate 250 g/ha) | Plant response rating, Johnsongrass (johnsongrass; PREEMERGENCE, Rate 250 g/ha) | Plant response rating, Large Crabgrass (large crabgrass; POSTEMERGENCE, Rate 125 g/ha) | Plant response rating, Large Crabgrass (large crabgrass; POSTEMERGENCE, Rate 250 g/ha) | Plant response rating, Peanuts (peanut; POSTEMERGENCE, Rate 125 g/ha) | Plant response rating, Peanuts (peanut; POSTEMERGENCE, Rate 250 g/ha) | Plant response rating, Peanuts (peanut; PREEMERGENCE, Rate 125 g/ha) | Plant response rating, Pit Morninglory (pitted morningglory; POSTEMERGENCE, Rate 125 g/ha) | Plant response rating, Pit Morninglory (pitted morningglory; PREEMERGENCE, Rate 125 g/ha) | Plant response rating, S. Sandbur (sandbur; POSTEMERGENCE, Rate 125 g/ha) | Plant response rating, S. Sandbur (sandbur; POSTEMERGENCE, Rate 250 g/ha) | Plant response rating, S. Sandbur (sandbur; PREEMERGENCE, Rate 125 g/ha) | Plant response rating, S. Sandbur (sandbur; PREEMERGENCE, Rate 250 g/ha) | Plant response rating, Smooth Crabgras (smooth crabgrass; POSTEMERGENCE, Rate 125 g/ha) | Plant response rating, Smooth Crabgras (smooth crabgrass; POSTEMERGENCE, Rate 250 g/ha) | Plant response rating, Yellow Nutsedge (yellow nutsedge; POSTEMERGENCE) | Plant response rating, Yellow Nutsedge (yellow nutsedge; PREEMERGENCE)
20: Plant response rating, Bermudagrass (bermudagrass; PREEMERGENCE, Rate 125 g/ha) | Plant response rating, Dallisgrass (dallisgrass; PREEMERGENCE, Rate 125 g/ha) | Plant response rating, Peanuts (peanut; PREEMERGENCE, Rate 250 g/ha) | Plant response rating, Pit Morninglory (pitted morningglory; POSTEMERGENCE, Rate 250 g/ha) | Plant response rating, Pit Morninglory (pitted morningglory; PREEMERGENCE, Rate 250 g/ha) | Plant response rating, Smooth Crabgras (smooth crabgrass; PREEMERGENCE, Rate 250 g/ha)
50: Plant response rating, Cmn Ragweed (common ragweed; PREEMERGENCE, Rate 125 g/ha) | Plant response rating, Cmn Ragweed (common ragweed; PREEMERGENCE, Rate 250 g/ha)

CC(C)COc1cc(-c2nn3c(c2Cl)CCCC3)c(F)cc1Cl [Compound 30]
40: Plant response rating, Cmn Ragweed (common ragweed; POSTEMERGENCE, Rate 125 g/ha)
60: Plant response rating, Cmn Purslane (common purslane; POSTEMERGENCE, Rate 250 g/ha)
0: Plant response rating, Ann Bluegrass (annual bluegrass; POSTEMERGENCE, Rate 125 g/ha) | Plant response rating, Ann Bluegrass (annual bluegrass; POSTEMERGENCE, Rate 250 g/ha) | Plant response rating, Ann Bluegrass (annual bluegrass; PREEMERGENCE, Rate 125 g/ha) | Plant response rating, Ann Bluegrass (annual bluegrass; PREEMERGENCE, Rate 250 g/ha) | Plant response rating, Bermudagrass (bermudagrass; POSTEMERGENCE, Rate 125 g/ha) | Plant response rating, Bermudagrass (bermudagrass; POSTEMERGENCE, Rate 250 g/ha) | Plant response rating, Bermudagrass (bermudagrass; PREEMERGENCE, Rate 125 g/ha) | Plant response rating, Bermudagrass (bermudagrass; PREEMERGENCE, Rate 250 g/ha) | Plant response rating, Brdlf Sgnlgrass (broadleaf signalgrass; POSTEMERGENCE, Rate 125 g/ha) | Plant response rating, Brdlf Sgnlgrass (broadleaf signalgrass; POSTEMERGENCE, Rate 250 g/ha) | Plant response rating, Brdlf Sgnlgrass (broadleaf signalgrass; PREEMERGENCE, Rate 125 g/ha) | Plant response rating, Brdlf Sgnlgrass (broadleaf signalgrass; PREEMERGENCE, Rate 250 g/ha) | Plant response rating, Cmn Purslane (common purslane; PREEMERGENCE, Rate 125 g/ha) | Plant response rating, Cmn Purslane (common purslane; PREEMERGENCE, Rate 250 g/ha) | Plant response rating, Cmn Ragweed (common ragweed; POSTEMERGENCE, Rate 250 g/ha) | Plant response rating, Cmn Ragweed (common ragweed; PREEMERGENCE, Rate 125 g/ha) | Plant response rating, Cmn Ragweed (common ragweed; PREEMERGENCE, Rate 250 g/ha) | Plant response rating, Dallisgrass (dallisgrass; POSTEMERGENCE, Rate 125 g/ha) | Plant response rating, Dallisgrass (dallisgrass; POSTEMERGENCE, Rate 250 g/ha) | Plant response rating, Dallisgrass (dallisgrass; PREEMERGENCE, Rate 125 g/ha) | Plant response rating, Dallisgrass (dallisgrass; PREEMERGENCE, Rate 250 g/ha) | Plant response rating, Goosegrass (goosegrass; POSTEMERGENCE, Rate 125 g/ha) | Plant response rating, Goosegrass (goosegrass; POSTEMERGENCE, Rate 250 g/ha) | Plant response rating, Goosegrass (goosegrass; PREEMERGENCE, Rate 125 g/ha) | Plant response rating, Guineagrass (guineagrass; POSTEMERGENCE, Rate 125 g/ha) | Plant response rating, Guineagrass (guineagrass; POSTEMERGENCE, Rate 250 g/ha) | Plant response rating, Guineagrass (guineagrass; PREEMERGENCE, Rate 125 g/ha) | Plant response rating, Guineagrass (guineagrass; PREEMERGENCE, Rate 250 g/ha) | Plant response rating, Itchgrass (itchgrass; POSTEMERGENCE, Rate 125 g/ha) | Plant response rating, Itchgrass (itchgrass; POSTEMERGENCE, Rate 250 g/ha) | Plant response rating, Itchgrass (itchgrass; PREEMERGENCE, Rate 125 g/ha) | Plant response rating, Itchgrass (itchgrass; PREEMERGENCE, Rate 250 g/ha) | Plant response rating, Johnsongrass (johnsongrass; POSTEMERGENCE, Rate 125 g/ha) | Plant response rating, Johnsongrass (johnsongrass; POSTEMERGENCE, Rate 250 g/ha) | Plant response rating, Johnsongrass (johnsongrass; PREEMERGENCE, Rate 125 g/ha) | Plant response rating, Johnsongrass (johnsongrass; PREEMERGENCE, Rate 250 g/ha) | Plant response rating, Large Crabgrass (large crabgrass; POSTEMERGENCE, Rate 125 g/ha) | Plant response rating, Large Crabgrass (large crabgrass; POSTEMERGENCE, Rate 250 g/ha) | Plant response rating, Large Crabgrass (large crabgrass; PREEMERGENCE, Rate 125 g/ha) | Plant response rating, Peanuts (peanut; POSTEMERGENCE, Rate 125 g/ha) | Plant response rating, Peanuts (peanut; POSTEMERGENCE, Rate 250 g/ha) | Plant response rating, Peanuts (peanut; PREEMERGENCE, Rate 125 g/ha) | Plant response rating, Peanuts (peanut; PREEMERGENCE, Rate 250 g/ha) | Plant response rating, Pit Morninglory (pitted morningglory; POSTEMERGENCE, Rate 125 g/ha) | Plant response rating, Pit Morninglory (pitted morningglory; PREEMERGENCE, Rate 125 g/ha) | Plant response rating, Pit Morninglory (pitted morningglory; PREEMERGENCE, Rate 250 g/ha) | Plant response rating, S. Sandbur (sandbur; POSTEMERGENCE, Rate 125 g/ha) | Plant response rating, S. Sandbur (sandbur; POSTEMERGENCE, Rate 250 g/ha) | Plant response rating, S. Sandbur (sandbur; PREEMERGENCE, Rate 125 g/ha) | Plant response rating, S. Sandbur (sandbur; PREEMERGENCE, Rate 250 g/ha) | Plant response rating, Smooth Crabgras (smooth crabgrass; POSTEMERGENCE, Rate 125 g/ha) | Plant response rating, Smooth Crabgras (smooth crabgrass; POSTEMERGENCE, Rate 250 g/ha) | Plant response rating, Smooth Crabgras (smooth crabgrass; PREEMERGENCE, Rate 125 g/ha) | Plant response rating, Smooth Crabgras (smooth crabgrass; PREEMERGENCE, Rate 250 g/ha) | Plant response rating, Yellow Nutsedge (yellow nutsedge; POSTEMERGENCE) | Plant response rating, Yellow Nutsedge (yellow nutsedge; PREEMERGENCE)
30: Plant response rating, Goosegrass (goosegrass; PREEMERGENCE, Rate 250 g/ha)
20: Plant response rating, Pit Morninglory (pitted morningglory; POSTEMERGENCE, Rate 250 g/ha)
70: Plant response rating, Cmn Purslane (common purslane; POSTEMERGENCE, Rate 125 g/ha) | Plant response rating, Large Crabgrass (large crabgrass; PREEMERGENCE, Rate 250 g/ha)
